From the supplement of paper PMC10307832 come the findings set out here.

Holding throughout (experiment): relative viability (nuclei count vs DMSO), 5 days (fraction); higher = more cells survive
Compound in assay [1]: C[C@H]([C@@H](C(=O)N)NC(=O)[C@@H]1CSSC[C@@H](C(=O)N[C@H](C(=O)N[C@@H](C(=O)N[C@H](C(=O)N1)CCCCN)CC2=CNC3=CC=CC=C32)CC4=CC=C(C=C4)O)NC(=O)[C@@H](CC5=CC=CC=C5)N)O [CAP-232]
The method in brief:
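Lung cancer cell lines received five library-drug doses (not always all listed) spaced by √10, pinned on vehicle-anchored 1536-well plates after an overnight stay at 37 °C. Five days later, with no medium change, nuclei were Hoechst-stained, imaged at 4× and counted with MetaXpress. Viability is treated-well nuclei relative to vehicle-well nuclei, as a median across plates. Passing plates had control CV below 25% and at least one doubling.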

Compound in assay [2]: C[C@H]([C@@H](C(=O)N)NC(=O)[C@@H]1CSSC[C@@H](C(=O)N[C@H](C(=O)N[C@@H](C(=O)N[C@H](C(=O)N1)CCCCN)CC2=CNC3=CC=CC=C32)CC4=CC=C(C=C4)O)NC(=O)[C@@H](CC5=CC=CC=C5)N)O [CAP-232] + CC(=O)Nc1cccc(-n2c(=O)n(C3CC3)c(=O)c3c(Nc4ccc(I)cc4F)n(C)c(=O)c(C)c32)c1 [Trametinib] (partner 0.02 µM)
The method in brief: (§1)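 Lung cancer cell lines were seeded in 1536-well plates and dosed by pin tool the next day, with either a single drug or a fixed anchor-drug dose combined with five library-drug doses (not always all listed) spaced in √10 steps. Five days later, one step fixed the cells and stained their nuclei (final 0.05% Triton X-100, 1% formaldehyde, 1 ug/ml Hoechst), and nuclei were counted on 4× images. Relative viability is the nuclei count in treated wells divided by the count in vehicle wells, and each value is the median of duplicate plates.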

Compound in assay [3]: C[C@H]([C@@H](C(=O)N)NC(=O)[C@@H]1CSSC[C@@H](C(=O)N[C@H](C(=O)N[C@@H](C(=O)N[C@H](C(=O)N1)CCCCN)CC2=CNC3=CC=CC=C32)CC4=CC=C(C=C4)O)NC(=O)[C@@H](CC5=CC=CC=C5)N)O [CAP-232] + CS(=O)(=O)CCNCc1ccc(-c2ccc3ncnc(Nc4ccc(OCc5cccc(F)c5)c(Cl)c4)c3c2)o1 [Lapatinib] (partner 2 µM)
A digest of the protocol: as §1

Compound in assay [4]: C[C@H]([C@@H](C(=O)N)NC(=O)[C@@H]1CSSC[C@@H](C(=O)N[C@H](C(=O)N[C@@H](C(=O)N[C@H](C(=O)N1)CCCCN)CC2=CNC3=CC=CC=C32)CC4=CC=C(C=C4)O)NC(=O)[C@@H](CC5=CC=CC=C5)N)O [CAP-232] + NC(=O)Nc1cc(-c2cccc(F)c2)sc1C(=O)N[C@H]1CCCNC1 [AZD7762] (partner 0.2 µM)
The method in brief: as §1

Compound in assay [5]: C[C@H]([C@@H](C(=O)N)NC(=O)[C@@H]1CSSC[C@@H](C(=O)N[C@H](C(=O)N[C@@H](C(=O)N[C@H](C(=O)N1)CCCCN)CC2=CNC3=CC=CC=C32)CC4=CC=C(C=C4)O)NC(=O)[C@@H](CC5=CC=CC=C5)N)O [CAP-232] + O=C(CCCCCCC(=O)Nc1ccccc1)NO [Vorinostat] (partner 1 µM)
A digest of the protocol: as §1

With NCI-H838, the relative viability in assay [1] (0.4 µM) amounted to 1.03; in assay [1] (1.265 µM) it was 0.943; in assay [1] (4 µM), 1.05; in assay [1] (12.65 µM) it was 0.757; in assay [2] (first compound 0.4 µM), 0.59; in assay [2] (first compound 1.265 µM), 0.555. Moreover, the relative viability in assay [2] (first compound 4 µM) is 0.626; in assay [2] (first compound 12.65 µM) it was 0.39; in assay [3] (first compound 0.4 µM), 0.976; in assay [3] (first compound 1.265 µM), 0.974; in assay [3] (first compound 4 µM) it was 1.14; in assay [3] (first compound 12.65 µM), 0.499. The relative viability was 1.05 in assay [4] (first compound 0.4 µM); 0.995 in assay [4] (first compound 1.265 µM); 0.989 in assay [4] (first compound 4 µM); 0.823 in assay [4] (first compound 12.65 µM); 0.727 in assay [5] (first compound 0.4 µM); 0.756 in assay [5] (first compound 1.265 µM). Moreover, the values for the relative viability in assay [5] (first compound 4 µM) and in assay [5] (first compound 12.65 µM) were 0.754 and 0.736, respectively.
As for NCI-H1437, the relative viability in assay [1] (0.4 µM) came out at 0.996; in assay [1] (1.265 µM), 1.01; in assay [1] (4 µM), 1.03; in assay [1] (12.65 µM), 0.895; in assay [2] (first compound 0.4 µM) it was 0.445; in assay [2] (first compound 1.265 µM), 0.515. Also, the relative viability in assay [2] (first compound 4 µM) was found to be 0.617; in assay [2] (first compound 12.65 µM) it was 0.458; in assay [3] (first compound 0.4 µM), 0.806; in assay [3] (first compound 1.265 µM), 0.853; in assay [3] (first compound 4 µM), 0.795; in assay [3] (first compound 12.65 µM), 0.583. For the same cell line, the relative viability in assay [4] (first compound 0.4 µM) was found to be 1.15; in assay [4] (first compound 1.265 µM), 1.11; in assay [4] (first compound 4 µM) it was 1.09; in assay [4] (first compound 12.65 µM), 1.05; in assay [5] (first compound 0.4 µM) it was 0.921; in assay [5] (first compound 1.265 µM), 0.877. The relative viability is 0.86 in assay [5] (first compound 4 µM) and 0.828 in assay [5] (first compound 12.65 µM).
For HCC-44, the relative viability in assay [1] (0.4 µM) came to 1.11; in assay [1] (1.265 µM) it was 0.988; in assay [1] (4 µM) it was 0.963; in assay [1] (12.65 µM) it was 0.978; in assay [2] (first compound 0.4 µM) it was 0.997; in assay [2] (first compound 1.265 µM) it was 1.02. For the same cell line, the relative viability turned out to be 1.06 in assay [2] (first compound 4 µM); 1.04 in assay [2] (first compound 12.65 µM); 1.14 in assay [3] (first compound 0.4 µM); 1.03 in assay [3] (first compound 1.265 µM); 1.05 in assay [3] (first compound 4 µM); 0.987 in assay [3] (first compound 12.65 µM). Besides, the relative viability in assay [4] (first compound 0.4 µM) worked out at 0.995; in assay [4] (first compound 1.265 µM) it was 1.06; in assay [4] (first compound 4 µM) it was 1.04; in assay [4] (first compound 12.65 µM), 0.986; in assay [5] (first compound 0.4 µM), 1.08; in assay [5] (first compound 1.265 µM) it was 1.08. Moreover, the relative viability in assay [5] (first compound 4 µM) came out at 1.15; in assay [5] (first compound 12.65 µM) it was 1.13.
With EPLC-272H, the relative viability in assay [1] (0.4 µM) was 0.998; in assay [1] (1.265 µM), 0.909; in assay [1] (4 µM) it was 1.05; in assay [1] (12.65 µM), 0.915; in assay [2] (first compound 0.4 µM), 0.261; in assay [2] (first compound 1.265 µM) it was 0.258. Moreover, the relative viability in assay [2] (first compound 4 µM) amounted to 0.281; in assay [2] (first compound 12.65 µM) it was 0.28; in assay [3] (first compound 0.4 µM) it was 1.25; in assay [3] (first compound 1.265 µM), 0.86; in assay [3] (first compound 4 µM), 1.04; in assay [3] (first compound 12.65 µM) it was 0.971. Moreover, the relative viability in assay [4] (first compound 0.4 µM) is 0.287; in assay [4] (first compound 1.265 µM), 0.165; in assay [4] (first compound 4 µM) it was 0.228; in assay [4] (first compound 12.65 µM), 0.209; in assay [5] (first compound 1.265 µM) it was 0.615; in assay [5] (first compound 4 µM) it was 0.545. The relative viability in assay [5] (first compound 12.65 µM) amounted to 0.158.
As to NCI-H358, the relative viability in assay [1] (0.4 µM) came to 0.979; in assay [1] (1.265 µM), 0.918; in assay [1] (4 µM) it was 0.927; in assay [1] (12.65 µM) it was 0.81; in assay [2] (first compound 0.4 µM), 0.111; in assay [2] (first compound 1.265 µM), 0.138. For the same cell line, the relative viability in assay [2] (first compound 4 µM) was 0.13; in assay [2] (first compound 12.65 µM) it was 0.098; in assay [3] (first compound 0.4 µM), 0.395; in assay [3] (first compound 1.265 µM), 0.393; in assay [3] (first compound 4 µM), 0.436; in assay [3] (first compound 12.65 µM), 0.445. Besides, the relative viability in assay [4] (first compound 0.4 µM) was determined as 0.466; in assay [4] (first compound 1.265 µM) it was 0.406; in assay [4] (first compound 4 µM), 0.376; in assay [4] (first compound 12.65 µM) it was 0.318; in assay [5] (first compound 0.4 µM), 0.755; in assay [5] (first compound 1.265 µM) it was 0.709. Moreover, the figures for the relative viability in assay [5] (first compound 4 µM) and in assay [5] (first compound 12.65 µM) were 0.71 and 0.375, respectively.
Take NCI-H596: the relative viability in assay [1] (0.4 µM) is 1.12; in assay [1] (1.265 µM), 0.934; in assay [1] (4 µM) it was 0.912; in assay [1] (12.65 µM), 0.976; in assay [2] (first compound 0.4 µM) it was 0.901; in assay [2] (first compound 1.265 µM) it was 0.675. The relative viability was 0.851 in assay [2] (first compound 4 µM); 0.765 in assay [2] (first compound 12.65 µM); 1.13 in assay [3] (first compound 0.4 µM); 1.03 in assay [3] (first compound 1.265 µM); 1.01 in assay [3] (first compound 4 µM); 0.974 in assay [3] (first compound 12.65 µM). Moreover, the relative viability in assay [4] (first compound 0.4 µM) stood at 1.1; in assay [4] (first compound 1.265 µM) it was 1.13; in assay [4] (first compound 4 µM), 1.05; in assay [4] (first compound 12.65 µM), 1.09; in assay [5] (first compound 0.4 µM), 0.666; in assay [5] (first compound 1.265 µM), 0.613. Further, the values for the relative viability in assay [5] (first compound 4 µM) and in assay [5] (first compound 12.65 µM) were 0.582 and 0.53, respectively.
Regarding NCI-H322M, the relative viability in assay [1] (0.4 µM) was 1.13; in assay [1] (1.265 µM), 0.86; in assay [1] (4 µM), 0.896; in assay [1] (12.65 µM) it was 1.16; in assay [2] (first compound 0.4 µM), 0.46; in assay [2] (first compound 1.265 µM) it was 0.514. The relative viability amounted to 0.497 in assay [2] (first compound 4 µM); 0.539 in assay [2] (first compound 12.65 µM); 0.558 in assay [3] (first compound 0.4 µM); 0.492 in assay [3] (first compound 1.265 µM); 0.69 in assay [3] (first compound 4 µM); 0.589 in assay [3] (first compound 12.65 µM). The relative viability came to 0.827 in assay [4] (first compound 0.4 µM); 0.645 in assay [4] (first compound 1.265 µM); 0.528 in assay [4] (first compound 4 µM); 0.556 in assay [4] (first compound 12.65 µM); 0.91 in assay [5] (first compound 0.4 µM); 0.894 in assay [5] (first compound 1.265 µM). Further, the relative viability came to 0.932 in assay [5] (first compound 4 µM) and 1.11 in assay [5] (first compound 12.65 µM).
